In patent US20180092908A1, “SMALL MOLECULE OXIDIZERS OF PDI AND THEIR USE” (THE TRUSTEES OF COLUMBIA UNIVERSITY IN THE CITY OF NEW YORK, priority 2015, published 2018):
Values after ≈ are worked out from the molar mass of the structure shown. Like-named read-outs stand apart in the source and are kept apart here. Each block holds one compound with its values, some of them ahead of it.

Tests used:
[1] = Mouse microsome stability assay; format: in vitro ADME; details: compound 0.5 μM
Procedure: At 0, 5, 15, 30 and 45 minute intervals, an aliquot was taken and quenched with acetonitrile (ACN) containing internal standard. No-cofactor controls at 45 minutes were prepared. Following completion of the experimentation, the samples were analyzed by LC-MS/MS. […] C=initial×exp (−k×t). Intrinsic clearance (CLint) was calculated as liver clearance from the half-life using the following equation: CLint=k×(ml incubation/0.5 mg protein)×(52.5 mg protein/g liver). Results were reported as peak area ratios of analyte to internal standard. The intrinsic clearance (CLint) was determined from the first order elimination constant by non-linear regression. The microsome stability assay, plasma stability assay, and plasma protein binding assay were each performed by Alliance Pharma, Inc. (Malvern, Pa.).

[2] = test system: PC12 mHTT^Q103 cells; assay: Rescue of PC12 cells from mHTT^Q103 induced cell death (Alamar blue viability); format: cell-based; details: Rattus norvegicus
Text: PC12 mHTT^Q103 cells were a gift from Erik S. Schweitzer (UCLA School of Medicine, Los Angeles, Calif.). These cells are stably transfected with the first exon of human HTT gene containing the pathogenic 103 CAG/CAA repeat expansion, under the control of the ecdysteroid promoter (Aiken et al., 2004). The plasmid also contains a Bombyx mori ecdysone receptor gene fused at N-terminal with VP16 transactivation domain (Suhr et al., 1998; Vilaboa et al., 2011). Addition of the ecdysone analog, tebufenozide, to the cell culture medium is used to initiate the transcription of mutant HTT (Aiken et al., 2004).
PC12 mHTT^Q103 cells were cultured in DMEM containing 4.5 g/I glucose, 25 mM HEPES, sodium pyruvate, and no L-glutamine (Mediatech, cat. no. 15-018-CV), supplemented with 10% (v/v) Cosmic Calf serum, 2 mM L-glutamine, 100 units/mL of penicillin-streptomycin, and 0.5 mg/ml active geneticin. Cells were grown at 37° C., 9.5% CO2, and the medium was replaced with fresh medium every 2-3 days. To induce mHTT^Q103 expression for experiments, tebufenozide, a gift from Lynne Moore and Fred H. Gage (The Salk Institute for Biological Studies, La Jolla, Calif.), was added to the medium at 200 nM final concentration from 1 mM stock in 85% ethanol.
LOC mother plates with compounds at 4 mg/ml were thawed and spun down (1000 rpm, 20° C., 1 min) prior to use. Biomek FX (Beckman Coulter) robotic liquid dispenser was used to handle all liquid transferring and mixing. […] Two fold serial dilution was performed across five daughter plates by transferring 50 μl of compounds (at […]) from the D1 plate into 50 μl of PC12 medium in daughter plate D2, mixing, and then repeating the process for the remaining three plates. Daughter plate D1 with compounds at […], daughter plate D3 with compounds at 20 μl/ml and daughter plate D5 with compounds at 5 μl/ml were then used for the screen. Assay plates were set up by seeding tebufenozide-induced PC12 mHTT^Q103 cells into 384-well black, clear-bottom plates (Corning Inc. cat. no. 3712) at a density of 7,500 cells per well in 57 μl PC12 medium without geneticin. Three microliters of compound from the daughter plates (D1, D3, and D5) were added to the assay plates for a final compound concentration of 4 μl/ml, 1 μl/ml, and 0.25 μl/ml. Four wells containing uninduced PC12 mHTT^Q103 cells and four wells containing medium only, were also included on each plate as controls. The assay plates were incubated at 37° C., 9.5% CO2 for 48 hours. Twenty microliters of 40% Alamar blue (Life Technologies cat. no. DAL1100) solution in PC12 medium was added to each well (1:10 final dilution) and the plates were incubated for an additional 12-24 hours at 37° C., 9.5% CO2. Alamar blue fluorescence was read on a fluorescence plate reader (PerkinElmer Victor3) with 530 nm excitation filter and 590 nm emission filter. Each compound concentration was tested in triplicate.
The follow-up testing of primary screen hits was performed in a similar way. Fresh powder stocks of primary hits were re-ordered from vendors, dissolved in DMSO and tested in a two-fold serial dilution across 10 wells in both tebufenozide-induced and uninduced PC12 mHTT^Q103 cells. Dose-response curves were plotted as mean±SD and fit to either four-parameter sigmoidal (for uninduced cells) or bell-shaped (induced) function using Prism (GraphPad Software).
A cascade of two assays was used, involving both a phenotypic high-throughput screening (HTS) assay and an in vitro PDI reductase assay, to identify neuroprotective PDI-inhibiting compounds. […] Alamar blue was used as a fluorescent readout for viability after 48 hours of compound treatment and mHTT^Q103 induction. […] All the candidate hit compounds were re-tested in a two-fold dilution series.

[3] = molecular target: T1, human catalytic PDI A1 a domain (PDIa) (Homo sapiens, UniProt P07237); assay: Isothermal titration calorimetry (ITC) binding to PDIa; details: PDIa
T1 construct: made in house; host or cells: Escherichia coli BL21-Gold (DE3)
T1 sequence (P07237 with tags, fused parts or gaps): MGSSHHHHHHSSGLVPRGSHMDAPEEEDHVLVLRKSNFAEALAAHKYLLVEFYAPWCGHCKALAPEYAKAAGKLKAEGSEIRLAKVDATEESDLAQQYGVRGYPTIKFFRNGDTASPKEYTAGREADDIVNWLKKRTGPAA

[4] = physchem; details: DMSO, organic solvent or mixture
[5] = molecular target: T2, recombinant catalytic a domain of human PDI A1 (PDIa) (Homo sapiens, UniProt P07237); assay: Insulin aggregation assay (PDIa reductase activity); format: biochemical; details: for Insulin Assay (either active or inactive): Table 5
T2 construct: made in house; host or cells: Escherichia coli BL21-Gold (DE3)
T2 sequence (P07237 with tags, fused parts or gaps): as above
Text: In this insulin aggregation assay (Xu et al., 2012; Jasuja et al., 2012; Khan et al., 2011; Smith et al., 2004), PDIa reduced the two disulfide bonds between the α- and β-chains of insulin, causing the β-chain to aggregate and precipitate, resulting in an increase in absorbance at 650 nm.
To investigate the mode of binding further and to determine whether the binding was reversible or irreversible, the recovery of enzymatic activity of PDIa after dilution of pre-formed concentrated PDIa-LOC14 complexes was analyzed. LOC14 (750 μM) was incubated with a concentrated solution of PDIa (500 μM). The mixture was then diluted 100-fold and PDI's enzymatic activity was measured in the insulin reduction assay. As a control, the same procedure was also performed on the sample containing an irreversible inhibitor, 16F16 (16F16 at 750 μM and PDIa at 500 μM). […] This illustrated that unlike 16F16, LOC14 binding to PDIa is reversible.

[6] = Solubility; details: for solubility: Table 4
[7] = molecular target: T1, human catalytic PDI A1 a domain (PDIa); assay: Isothermal titration calorimetry (ITC) binding to PDIa; details: PDIa; remark: listed apart in the source
Procedure: All ITC experiments were carried out at 25° C. on MicoCal Auto-ITC200 system (GE Healthcare). Reduced PDIa was dialyzed into ITC buffer (20 mM sodium phosphate buffer pH 7.8) and loaded into a sample cell at 40 μM concentration. The compound solution was loaded into a syringe at 400 μM in the same ITC buffer with a final DMSO concentration at 0.4% (v/v). ITC titration experiments were carried out at 25° C. with 19 injections, 2 μl per injection, and 180 seconds between each injection. The reference cell power was set to 5 μcal/sec. A control experiment was performed for each compound, where each compound was titrated into buffer to account for heat released due to dilution. This background was subtracted from test data before a final dissociation constant was obtained. Data were analyzed using a one-site binding model in Origin 7.1 software. […] Gibbs free energy, ΔG, was calculated from equation ΔG=ΔH−TΔS. All other parameters, Ka, n, ΔH, ΔS, were determined directly from the titration data.
For ITC experiments with 16F16 pre-treatment, 40 μM PDIa (after dialysis into ITC buffer) was treated with 200 μM 16F16 for 12-15 hours at 4° C. Next day the whole solution was loaded into the sample cell. LOC14 at 400 μM in ITC buffer was loaded into syringe and titrated into PDIa+16F16 loaded cell. For control experiments, ITC buffer with 200 μM 16F16 was used in the cell, while 400 μM LOC14 in ITC buffer was used in the syringe.
The binding mode of LOC14 to PDIa was next investigated using isothermal titration calorimetry (ITC). ITC measures the heat released or absorbed during a biomolecular interaction. It is a direct analytical method for determining the binding and thermodynamic parameters, such as reaction stoichiometry (n), binding constants (Ka and Kd), enthalpy (ΔH), entropy (ΔS), and free energy (ΔG) of an interaction.

[8] = molecular target: T2, recombinant catalytic a domain of human PDI A1 (PDIa); assay: Insulin aggregation assay (PDIa reductase activity); format: biochemical; details: compound 750 μM
[9] = test system: PC12 mHTT^Q103 cells; details: Hoffstrom et al., 2010; read-out: EC50, rescue of PC12 mHTT^Q103 cells (previously identified inhibitor); cited from earlier work
[10] = Mouse plasma stability assay; format: in vitro ADME; details: compound 1.0 μM
Procedure: Test compound (1 μM) was incubated at 37° C. for up to 120 minutes in mouse plasma. At 0, 15, 30, 60, and 120 minute intervals an 100 μL aliquot was taken and quenched with 200 μL acetonitrile (ACN) containing internal standard. Following completion of the experimentation, the samples were analyzed by LC-MS/MS. The half-life (t1/2) was calculated using the following equation: t1/2=0.693/k, where, k is the elimination rate constant of test compounds obtained by fitting the data to the equation: C=initial×exp (−k×t). Results were reported as peak area ratios of analyte to internal standard.
The microsome stability assay, plasma stability assay, and plasma protein binding assay were each performed by Alliance Pharma, Inc. (Malvern, Pa.).

[11] = first site, Table 5, read-out: ITC Assay KD1 (2 binding sites)
[12] = PC-12, Table 5, read-out: Cell Viability Assay EC50
[13] = first site, Table 4, read-out: ITC KD1 (two binding site)

inhibition of PDI's reduction of insulin without dilution [8]: able to inhibit
PDI's enzymatic activity after dilution of pre-formed complex ([5]; compound 750 μM + PDIa 500 μM, diluted 100-fold): still inhibited
SMILES: COC(=O)C1(C)c2[nH]c3ccccc3c2CCN1C(=O)CCl (centres unmarked) [16F16, reference compound]
EC50 [9]: 1 µM

% Remaining after 2-hour incubation [10]: 4.3%
Elimination rate constant (k) [10]: 0.0201
half-life at 1 μM ([10]; read-out: Half-life (t1/2) (converted)): 36 min
SMILES: CCOC(=O)[C@H](CCc1ccccc1)N[C@@H](C)C(=O)N1CCC[C@H]1C(=O)O [Enalapril, reference compound]

solubility [6]: poor solubility
Solubility (words, printed in ITC Assay column) ([6]; Table 5): poor solubility
solubility [4]: < 6.75 mM
Insulin Assay (either active or inactive) [5]: Active
SMILES: O=c1c2ccccc2sn1CN1CCN(Cn2sc3ccccc3c2=O)CC1 [LC-9, 2,2′-(piperazine-1,4-diylbis(methylene))bis(benzo[d]isothiazol-3(2H)-one)]
EC50 [2, 12]: 0.173 µM

Continued, compound first:

SMILES: CCOc1ccc2ccc(=O)oc2c1 [7-Ethoxycoumarin, reference compound]
Elimination rate constant (k) ([1]; mouse liver microsomes): 0.2341
Intrinsic Clearance (CLint), mL/min/g liver ([1]; mouse liver microsomes): 24.58 mL/min/g liver
half-life at 0.5 μM ([1]; mouse, liver microsomes, pH 7.4, mouse liver microsomes, read-out: Half-life (t1/2)): 3 min

SMILES: O=c1c2ccccc2sn1-c1ccccc1 [LC-24]
EC50 ([2]; PC-12, read-out: Cell Viability Assay EC50): 1.13 µM
Kd [3, 11]: 0.0081 µM
solubility [4]: 50 mM (≈ 11.4 mg/mL)
Insulin Assay (either active or inactive) [5]: not active

SMILES: CC(C)(C)OC(=O)NC1CCN(Cn2sc3ccccc3c2=O)CC1 [LC-8]
Solubility in DMSO ([6]; Table 5): 50 mM in DMSO
EC50 [2, 12]: 0.384 µM
Kd ([7]; Table 4, read-out: ITC KD): 0.0943 µM
Kd ([7]; Table 5, read-out: ITC Assay KD): 0.0943 µM
solubility [4]: 50 mM (≈ 18.2 mg/mL)
Insulin Assay (either active or inactive) [5]: Active

SMILES: O=c1c2ccccc2[se]n1-c1ccccc1 [Ebselen, reference compound]
solubility [6]: Poor
Kd [3, 13]: 0.0052 µM
Kd ([3]; second site, Table 4, read-out: ITC KD2 (two binding site)): 0.111 µM

SMILES: O=c1c2ccccc2sn1Cc1ccccc1 [LC-5, 2-benzylbenzo[d]isothiazol-3(2H)-one]
Solubility in DMSO ([6]; Table 5): 100 mM in DMSO
Kd [3, 13]: 0.0427 µM
Kd [3, 11]: 0.0427 µM
Kd ([3]; read-out: ITC Assay KD2 (2 binding sites), second site, Table 5): 2.27 µM
Insulin Assay (either active or inactive) [5]: Active
